From patent EP2914280B1, “SOMATOSTATIN-DOPAMINE CHIMERIC ANALOGS” (IPSEN PHARMA S.A.S., priority 2012, dated 2014) come the findings set out here.

Read-outs that look alike come from different tables or passages of the source. Numbered stars: 1 amine (or outer) side, 2 acyl side, 3 side chain; on linkers, the order of the positions; unused ones are H or OH. Bridge positions count the residues as written; N and C are the ends. Square brackets hold non-standard residues; d marks the D form. Peptide text beside a SMILES is read from it. * marks the point of attachment. X1 = CN1C[C@H](CSCCN(CCSC[C@@H]2C[C@@H]3c4cccc5[nH]cc(c45)C[C@H]3N(C)C2)[C@H](CCCCN[*:2])C(=O)[*:1])C[C@@H]2c3cccc4[nH]cc(c34)C[C@H]21; X2 = CN1C[C@H](CSCC(=O)*)C[C@@H]2c3cccc4[nH]cc(c34)C[C@H]21; 4Pal = N[C@@H](Cc1ccncc1)C(=O)O

In assay [1] the target is T1, hSSTR1 (Homo sapiens, UniProt P30872).
T1 construct: expressed in transfected cells; host or cells: CHO-K1 (ATCC), pcDNA3.1, G418-selected clonal line; membranes
Description: Somatostatin receptor radioligand binding assay (hSSTR1).
Description: (§1) The affinities of a test compound for the human somatostatin receptors were determined by radioligand binding assays in CHO-K1 cells stably transfected with each of the human somatostatin receptor subtypes, hSSTR1-5. […] Clonal cell lines stably expressing each of the somatostatin receptors were obtained by transfection into CHO-K1 cells (ATCC) and subsequently selected with culture media containing 0.8 mg/mL of G418 (Life Technologies).
(§2) Membranes for in vitro receptor binding assays were obtained by the following procedures. […] The supernatant containing the plasma membranes was centrifuged at 100,000 x g for 30 minutes and the pellet was resuspended in buffer containing 20 mM glycine-glycine, 1 mM MgCl2, 250 mM sucrose, pH 7.2, for storage at -80°C.
(§3) For the SSTR1, 2 and 5 assays, membranes and various concentrations of test compounds were incubated in 96-well plates for 60 minutes at 25°C with 0.05 nM [^125I-Tyr^11]-SRIF-14 (for hSSTR1; PerkinElmer Life Science), 0.05 nM [^125I-Tyr]-seglitide (for hSSTR2; PerkinElmer Life Science) or 0.05 nM [^125I-Tyr]-[DPhe-cyclo(Cys-Tyr-DTrp-Lys-Val-Cys)-Thr-NH2] (for hSSTR5; PerkinElmer Life Science) in 50 mM HEPES, 0.2% BSA, 0.1 mM MgCl2, pH 7.5.
(§4) The incubations were terminated by rapid filtration through GF/C glass microfiber filter plates (pre-wet with 0.3% polyethyleneimine and 0.1 % BSA) using a 96-well cell harvester (Brandel). Plates were washed six times with 1 mL/well aliquots of ice-cold buffer containing 50 mM Tris buffer, pH 7.7. Specific binding was defined as the total radioligand bound minus the bound in the presence of 1000 nM SRIF-14.

In assay [2] the target is T2, hSSTR2 (Homo sapiens, UniProt P30874).
T2 construct: host or cells: 'Cells expressing hSSTR2'
Description: Somatostatin receptor radioligand binding assay (hSSTR2).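 Further: radioligand displacement on membranes of CHO-K1 cells stably transfected with human SSTR2, specific binding taken as total minus binding left with 1000 nM SRIF-14.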

Assay [3] has as its target T3, hSSTR5 (Homo sapiens, UniProt P35346).
T3 construct: expressed in transfected cells; host or cells: CHO-K1 (ATCC), pcDNA3.1, G418-selected clonal line; membranes
In words: Somatostatin receptor radioligand binding assay (hSSTR5). The note with it: CHO-K1 cell membranes; 0.05 nM [125I-Tyr]-[DPhe-cyclo(Cys-Tyr-DTrp-Lys-Val-Cys)-Thr-NH2]; 60 minutes at 25°C; read-out: hSSTR5 Ki (nM) ± SEM.
Description: as §1, §2, §3, §4

For assay [4], the target named is T4, hDRD2 (Homo sapiens, UniProt P14416). In words: cell-based. The settings on record: for Emax: read-out: hDRD2 %Emax ± SEM. On the set-up: host or cells: 'Cells expressing hDRD2'.
Assay [5] deals with T4, hDRD2. In words: biochemical. Also noted: expressed in transfected cells; host or cells: CHO-K1, pcDNA3.1/GS, zeocin-selected clonal line; membranes. It is filed as binding.
Assay [6] concerns the target T2, hSSTR2. Description: Intracellular calcium mobilization assay (FLIPR Calcium 4), hSSTR2.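 Further: agonist activity measured in cells expressing hSSTR2, seeded in 384-well plates, loaded with Calcium 4 dye, read-out as rise in intracellular calcium.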 Format: cell-based.
Description: The ability of select compounds according to the present invention to activate hSSTR2 and hDRD2 was determined by the intracellular calcium mobilization assay using FLIPR Calcium 4 assay kit (Molecular Devices).
Cells expressing hSSTR2 or hDRD2 were plated in 384-well microplates in tissue culture media and incubated for 16-24 hours at 37°C in a humidified atmosphere with 5% CO2. Medium was replaced by loading buffer containing Hank's buffered saline, 20 mM HEPES, 2.5 mM probenecid and Calcium 4 dye, and the plates were incubated at 37°C for 60 minutes.
[7] abbreviates: CHO-K1 cell membranes, 0.05 nM [125I-Tyr11]-SRIF-14, 60 minutes at 25°C, read-out: hSSTR1 Ki (nM) ± SEM.
[8] abbreviates: CHO-K1 cell membranes, 0.05 nM [125I-Tyr]-seglitide, 60 minutes at 25°C, read-out: hSSTR2 Ki (nM) ± SEM.
Where [9] appears, read: CHO-K1 cell membranes, […] [3H]-spiperone, 60 minutes at 25°C, read-out: hDRD2 Ki (nM) ± SEM.
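Wherever Emax is given: agonist activity at human DRD2 in DRD2-expressing cells, read as intracellular calcium mobilization with a FLIPR Calcium 4 fluorescent dye.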

T3 sequence (P35346 whole entry): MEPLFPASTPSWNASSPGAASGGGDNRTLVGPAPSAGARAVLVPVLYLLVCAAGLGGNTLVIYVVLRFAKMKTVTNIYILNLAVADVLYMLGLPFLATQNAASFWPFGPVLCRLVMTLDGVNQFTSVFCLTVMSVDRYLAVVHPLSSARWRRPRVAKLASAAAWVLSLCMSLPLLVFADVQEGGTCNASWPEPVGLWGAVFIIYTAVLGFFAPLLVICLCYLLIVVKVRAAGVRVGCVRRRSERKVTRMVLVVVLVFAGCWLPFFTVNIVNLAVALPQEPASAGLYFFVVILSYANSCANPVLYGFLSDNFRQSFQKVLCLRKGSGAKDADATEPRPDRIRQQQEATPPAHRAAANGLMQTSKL
T2 sequence (P30874 whole entry): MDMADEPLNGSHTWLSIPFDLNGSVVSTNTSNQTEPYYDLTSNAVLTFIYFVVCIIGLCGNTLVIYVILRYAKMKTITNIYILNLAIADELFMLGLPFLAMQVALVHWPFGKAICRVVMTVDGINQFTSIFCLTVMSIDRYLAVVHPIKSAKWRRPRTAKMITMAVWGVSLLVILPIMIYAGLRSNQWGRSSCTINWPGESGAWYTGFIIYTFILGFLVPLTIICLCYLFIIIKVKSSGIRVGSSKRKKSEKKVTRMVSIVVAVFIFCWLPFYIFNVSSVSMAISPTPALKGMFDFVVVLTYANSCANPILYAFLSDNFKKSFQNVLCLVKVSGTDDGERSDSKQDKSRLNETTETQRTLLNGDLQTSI
T1 sequence (P30872 whole entry): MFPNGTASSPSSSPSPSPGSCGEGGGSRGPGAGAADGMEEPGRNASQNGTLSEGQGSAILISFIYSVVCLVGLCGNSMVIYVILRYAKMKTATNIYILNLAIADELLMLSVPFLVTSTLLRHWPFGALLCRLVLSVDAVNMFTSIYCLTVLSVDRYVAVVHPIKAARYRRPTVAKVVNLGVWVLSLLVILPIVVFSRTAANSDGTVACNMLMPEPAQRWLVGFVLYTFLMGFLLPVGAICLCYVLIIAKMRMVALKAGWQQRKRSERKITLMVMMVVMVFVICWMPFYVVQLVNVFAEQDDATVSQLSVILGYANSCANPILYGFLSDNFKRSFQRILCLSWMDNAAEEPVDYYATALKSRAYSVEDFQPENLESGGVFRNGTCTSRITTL
T4 sequence (P14416 whole entry): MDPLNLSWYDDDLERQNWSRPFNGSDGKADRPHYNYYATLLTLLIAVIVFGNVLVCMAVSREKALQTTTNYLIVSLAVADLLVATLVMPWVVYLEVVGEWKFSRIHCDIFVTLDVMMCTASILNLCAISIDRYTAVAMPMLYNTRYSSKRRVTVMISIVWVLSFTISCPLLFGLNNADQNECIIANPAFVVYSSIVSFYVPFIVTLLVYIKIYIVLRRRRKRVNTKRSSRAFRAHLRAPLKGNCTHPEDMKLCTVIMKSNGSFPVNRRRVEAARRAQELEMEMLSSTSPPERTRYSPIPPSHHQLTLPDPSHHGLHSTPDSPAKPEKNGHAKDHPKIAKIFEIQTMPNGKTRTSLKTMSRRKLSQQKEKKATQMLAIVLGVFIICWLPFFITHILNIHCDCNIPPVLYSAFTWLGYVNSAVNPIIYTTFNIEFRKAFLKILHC

`C[C@@H](O)[C@@H]1NC(=O)[C@H](CCCCN)NC(=O)[C@@H](Cc2c[nH]c3ccccc23)NC(=O)[C@H](Cc2ccncc2)NC(=O)[C@H](Cc2ccccc2)NC(=O)[C@H](CCCNC(=N)N)NC(=O)[C@H](NCCS(=O)(=O)C[C@@H]2C[C@@H]3c4cccc5[nH]cc(c45)C[C@H]3N(C)C2)CCCCNC(=O)[C@H](Cc2ccc(O)cc2)NC1=O` [Compound 20, Dop1(SO2)-psi(CH2NH)-cyclo(DLys-Arg-Phe-4Pal-DTrp-Lys-Thr-Tyr)]: the Ki in assay [1] (setting [7]) was found to be 689 nM; in assay [2] (setting [8]) it was 0.02 ± 0.01 nM; in assay [3], 0.33 nM; in assay [5] (setting [9]), 115 ± 41.3 nM. For the same molecule, in assay [4], the Emax was 101.5 ± 0.6%.

For `C[C@@H](O)[C@@H]1NC(=O)[C@H](CCCCN)NC(=O)[C@@H](Cc2c[nH]c3ccccc23)NC(=O)[C@H](Cc2ccccc2)NC(=O)[C@H](Cc2ccccc2)NC(=O)[C@H](CCCNC(=N)N)NC(=O)[C@H](NC[C@H](Cc2ccc(O)cc2)NC(=O)CSC[C@@H]2C[C@@H]3c4cccc5[nH]cc(c45)C[C@H]3N(C)C2)CCCCNC(=O)[C@H](Cc2ccccc2)NC1=O` [Compound 32, Dop1-Tyr-psi(CH2NH)-cyclo(DLys-Arg-Phe-Phe-DTrp-Lys-Thr-Phe)], the inhibitory constant (Ki) in assay [1] was 5.3 ± 2.9 nM; in assay [2], 0.28 ± 0.07 nM; in assay [3], 1.58 nM; in assay [5], 44 ± 1 nM. For the same molecule, the EC50 in assay [6] was 13.6 ± 3.4 nM; in assay [4] it was 35.6 ± 2.4 nM. Also, the “improvement in EC50 and/or %Emax over Reference Compound B” value in assay [6] (receptor not named) is “statistically significant improvement in EC50 and/or %Emax”. The Emax in assay [4] turned out to be 102 ± 12.8%.

As to `C[C@@H](O)[C@@H]1NC(=O)[C@H](CCCCN)NC(=O)[C@@H](Cc2c[nH]c3ccccc23)NC(=O)[C@H](Cc2ccncc2)NC(=O)[C@H](Cc2ccccc2)NC(=O)[C@H](CCCNC(=N)N)NC(=O)[C@H](NCC[S@+]([O-])C[C@@H]2C[C@@H]3c4cccc5[nH]cc(c45)C[C@H]3N(C)C2)CCCCNC(=O)[C@H](Cc2ccc(O)cc2)NC1=O` [Compound 11, Dop1[(R)SO]-psi(CH2NH)-cyclo(DLys-Arg-Phe-4Pa1-DTrp-Lys-Thr-Tyr)], the Ki came to 160 ± 22.5 nM in assay [1], 0.05 nM in assay [2], 0.09 nM in assay [3] and 79.7 ± 21.4 nM in assay [5]. The EC50 in assay [6] came to 2.4 ± 0.4 nM; in assay [4] it was 6.4 ± 0.9 nM. Also, in assay [4], the Emax came to 106 ± 3.5%.

As for `C[C@@H](O)[C@@H]1NC(=O)[C@H](CCCCN)NC(=O)[C@@H](Cc2c[nH]c3ccccc23)NC(=O)[C@H](Cc2ccncc2)NC(=O)[C@H](Cc2ccccc2)NC(=O)[C@H](CCCNC(=N)N)NC(=O)[C@H](NC[C@H](CCCCNC(=O)C[S+]([O-])C[C@@H]2C[C@@H]3c4cccc5[nH]cc(c45)C[C@H]3N(C)C2)NC(=O)C[S+]([O-])C[C@@H]2C[C@@H]3c4cccc5[nH]cc(c45)C[C@H]3N(C)C2)CCCCNC(=O)[C@H](Cc2ccccc2)NC1=O` (stereo partly drawn) [Compound 17, Dop1(SO)-Lys[Dop1(SO)]-psi(CH2NH)-cyclo(DLys-Arg-Phe-4Pal-DTrp-Lys-Thr-Phe)], the Ki was found to be 91.4 nM in assay [1], 0.08 ± 0.05 nM in assay [2], 0.86 nM in assay [3] and 67.6 ± 18.4 nM in assay [5]. In addition, the concentration for a half-maximal effect (EC50) is 10.3 ± 2 nM in assay [6] and 10.2 ± 2.2 nM in assay [4]. Moreover, in assay [4], the maximal response (Emax) is 96.9 ± 1.2%.

For the molecule `C[C@@H](O)[C@@H]1NC(=O)[C@H](CCCCN)NC(=O)[C@@H](Cc2c[nH]c3ccccc23)NC(=O)[C@H](Cc2ccncc2)NC(=O)[C@H](Cc2ccccc2)NC(=O)[C@H](CCCNC(=N)N)NC(=O)[C@H](NC(=O)CSC[C@@H]2C[C@@H]3c4cccc5[nH]cc(c45)C[C@H]3N(C)C2)CCCCNC(=O)[C@H](Cc2ccc(O)cc2)NC1=O` [Compound 25, Dop1-cyclo(DLys-Arg-Phe-4Pal-DTrp-Lys-Thr-Tyr)] (X2-[dK]RF[4Pal][dW]KTY; lactam 1-C), the Ki in assay [1] was found to be 41.9 ± 17.6 nM; in assay [2] it was 0.05 ± 0.01 nM; in assay [3], 0.95 ± 0.1 nM; in assay [5], 272 ± 119 nM. Also, the EC50 in assay [6] turned out to be 3.4 ± 1 nM; in assay [4], 27 ± 3.3 nM. Also, the “improvement in EC50 over Reference Compound A” value in assay [6] (p value (Student's t-test, one-tailed) < 0.05, receptor not named) is “statistically significant improvement in EC50”. Further, the Emax in assay [4] is 82.5 ± 7.6%.

Take `C[C@@H](O)[C@@H]1NC(=O)[C@H](CCCCN)NC(=O)[C@@H](Cc2c[nH]c3ccccc23)NC(=O)[C@H](Cc2ccncc2)NC(=O)[C@H](Cc2ccccc2)NC(=O)[C@H](CCCNC(=N)N)NC(=O)[C@H](NC[C@H](Cc2ccc(O)cc2)NC(=O)C[S+]([O-])C[C@@H]2C[C@@H]3c4cccc5[nH]cc(c45)C[C@H]3N(C)C2)CCCCNC(=O)[C@H](Cc2ccccc2)NC1=O` (stereo partly drawn) [Compound 15, Dop1(SO)-Tyr-psi(CH2NH)-cyclo(DLys-Arg-Phe-4Pal-DTrp-Lys-Thr-Phe)]: the inhibition constant Ki in assay [1] came to 64.4 nM; in assay [2], 0.02 ± 0.01 nM; in assay [3] it was 0.08 nM; in assay [5], 149 ± 11.3 nM. Besides, the EC50 came to 1.6 ± 0.3 nM in assay [6] and 7.4 ± 0.4 nM in assay [4]. Besides, the Emax in assay [4] was 94.6 ± 0.8%.

Consider `C[C@@H](O)[C@@H]1NC(=O)[C@H](CCCCN)NC(=O)[C@@H](Cc2c[nH]c3ccccc23)NC(=O)[C@H](Cc2ccccc2)NC(=O)[C@H](Cc2ccccc2)NC(=O)[C@H](CCCNC(=N)N)NC(=O)[C@H](NCCSC[C@@H]2C[C@@H]3c4cccc5[nH]cc(c45)C[C@H]3N(C)C2)CCCCNC(=O)[C@H](Cc2ccccc2)NC1=O` [Compound 26, Dop1-psi(CH2NH)-cyclo(DLys-Arg-Phe-Phe-DTrp-Lys-Thr-Phe)], for which the inhibition constant Ki in assay [1] was found to be 59 nM; in assay [2], 2.23 ± 0.97 nM; in assay [5], 309 ± 56.6 nM. Besides, the EC50 in assay [6] was 9.8 ± 1.4 nM; in assay [4] it was 34.1 ± 6.8 nM. Also, the Emax in assay [4] turned out to be 93.7 ± 7.2%.

Consider `C[C@@H](O)[C@@H]1NC(=O)[C@H](CCCCN)NC(=O)[C@@H](Cc2c[nH]c3ccccc23)NC(=O)[C@H](Cc2ccncc2)NC(=O)[C@H](Cc2ccccc2)NC(=O)[C@H](CCCNC(=N)N)NC(=O)[C@H](NCC[S@@+]([O-])C[C@@H]2C[C@@H]3c4cccc5[nH]cc(c45)C[C@H]3N(C)C2)CCCCNC(=O)[C@H](Cc2ccc(O)cc2)NC1=O` [Compound 12, Dop1[(S)SO]-psi(CH2NH)-cyclo(DLys-Arg-Phe-4Pal-DTrp-Lys-Thr-Tyr)], for which the Ki is 98.9 ± 2.3 nM in assay [1], 0.06 ± 0.01 nM in assay [2], 0.74 ± 0.4 nM in assay [3] and 255 ± 224 nM in assay [5]. Moreover, the EC50 in assay [6] was 4.1 ± 1.4 nM; in assay [4] it was 76.3 ± 28.2 nM. Besides, the maximal effect (Emax) in assay [4] worked out at 99.8 ± 6%.

Turning to `C[C@@H](O)[C@@H]1NC(=O)[C@H](CCCCN)NC(=O)[C@@H](Cc2c[nH]c3ccccc23)NC(=O)[C@H](Cc2ccncc2)NC(=O)[C@H](Cc2ccccc2)NC(=O)[C@H](CCCNC(=N)N)NC(=O)[C@H](N(CCSC[C@@H]2C[C@@H]3c4cccc5[nH]cc(c45)C[C@H]3N(C)C2)CCSC[C@@H]2C[C@@H]3c4cccc5[nH]cc(c45)C[C@H]3N(C)C2)CCCCNC(=O)[C@H](Cc2ccc(O)cc2)NC1=O` [Compound 35, bis[Dop1-psi(CH2N)]-cyclo(DLys-Arg-Phe-4Pal-DTrp-Lys-Thr-Tyr)] (RF[4Pal][dW]KTY; linker N-C via X1), the values for the Ki in assay [1] (setting [7]), in assay [2] (setting [8]) and in assay [5] were 99.7 nM, 0.17 ± 0.06 nM and 345 ± 40.4 nM, respectively. The EC50 in assay [6] (Table IV, cells expressing hSSTR2, read-out: hSSTR2 EC50 (nM) ± SEM) stood at 19.4 ± 6.2 nM; in assay [4], 97.4 ± 21.1 nM. Besides, the Emax in assay [4] was 103 ± 1.4%.

Turning to `C[C@@H](O)[C@@H]1NC(=O)[C@H](CCCCN)NC(=O)[C@@H](Cc2c[nH]c3ccccc23)NC(=O)[C@H](Cc2ccccc2)NC(=O)[C@H](Cc2ccccc2)NC(=O)[C@H](CCCNC(=N)N)NC(=O)[C@H](NC[C@H](CCCCNC(=O)CSC[C@@H]2C[C@@H]3c4cccc5[nH]cc(c45)C[C@H]3N(C)C2)NC(=O)CSC[C@@H]2C[C@@H]3c4cccc5[nH]cc(c45)C[C@H]3N(C)C2)CCCCNC(=O)[C@H](Cc2ccc(F)cc2)NC1=O` [Compound 47, Dop1-Lys(Dop1)-psi(CH2NH)-cyclo(DLys-Arg-Phe-Phe-DTrp-Lys-Thr-4FPhe)], the Ki in assay [1] (setting [7]) worked out at 29 nM; in assay [2] (setting [8]), 0.58 ± 0.27 nM; in assay [5] (setting [9]), 84.2 ± 7.5 nM. Further, the “improvement in %Emax over Reference Compound C” value in assay [6] (receptor not named) is reported as “statistically significant improvement in %Emax”. Also, in assay [4], the Emax is 92.5 ± 0.8%.

For the molecule `C[C@@H](O)[C@@H]1NC(=O)[C@H](CCCCN)NC(=O)[C@@H](Cc2c[nH]c3ccccc23)NC(=O)[C@H](Cc2ccncc2)NC(=O)[C@H](Cc2ccccc2)NC(=O)[C@H](CCCNC(=N)N)NC(=O)[C@H](NC[C@H](CCCCNC(=O)C[S+]([O-])C[C@@H]2C[C@@H]3c4cccc5[nH]cc(c45)C[C@H]3N(C)C2)NC(=O)C[S+]([O-])C[C@@H]2C[C@@H]3c4cccc5[nH]cc(c45)C[C@H]3N(C)C2)CCCCNC(=O)[C@H](Cc2ccc(O)cc2)NC1=O` (stereo partly drawn) [Compound 16, Dop1(SO)-Lys[Dop1(SO)]-psi(CH2NH)-cyclo(DLys-Arg-Phe-4Pal-DTrp-Lys-Thr-Tyr)], the Ki is 0.04 ± 0.03 nM in assay [2] and 22.5 ± 1.9 nM in assay [5]. Besides, the EC50 in assay [6] is 6 ± 0.8 nM; in assay [4] it was 4.7 ± 0.5 nM. Moreover, the Emax in assay [4] came to 95.2 ± 1.7%.
